The conditions of data set [1]: in vivo; cited from earlier work.
Data set [2] addresses VEGFR2, unphosphorylated (Homo sapiens (Human), UniProt P35968). As to the kind of experiment: VEGFR ADP GLO assay. Type of data set: biochemical. The note with it: 5 nM VEGFR2, 1.2 mM ATP, 1 mg/mL Srctide, 180 min. An outline of the steps:
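Luminescent ADP detection after a 180-min room-temperature reaction of srctide plus ATP (2 mg/mL and 2.4 mM in 2× mix) in pH 7.5 HEPES buffer with DTT, Pluronic and ovalbumin. Compounds, 11 points from 10 µM, first pre-incubated 30 min with enzyme (2× mix 10 nM). IC50s fitted after scaling between DMSO and 1 µM TAK-593 controls.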

Data set [3] has as its target PDGFRβ (Rattus norvegicus (Rat), UniProt Q05030). As to the kind of experiment: PDGFRβ Cellular Assay (PDGFRb P-Y751 HTRF, PDGF-BB stimulated A10 cells). Conditions: A10 cells, 3 hours compound, 15 ng/mL PDGFbb for 10 minutes; read-out: PDGFR Cellular IC50. Format: cell-based. An outline of the steps: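 Rat A10 cells plated overnight were treated with compound for 3 h, stimulated with rat PDGF-BB (working stock 100 ng/mL in 10% FBS medium) for 10 min, then lysed.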
(In general: In TR-FRET formats the signal depends on donor and acceptor labels being close together.)

Data set [4] has as its target Tb-labeled inactive PDGFRβ (Homo sapiens (Human), UniProt P09619). As to the kind of experiment: biochemical. Type of data set: binding. Conditions: read-out: PDGFR Lantha IC50.
The target of data set [5] is His6-TEV-PDGFRβ (557-1016) (Homo sapiens (Human), UniProt P09619). As to the kind of experiment: PDGFRβ HTRF Assay. The note with it: 800 μM ATP, 0.5 μM TK-substrate biotin peptide, 30 min pre-incubation, 3 hours reaction; read-out: PDGFR HTRF IC50. Type of data set: biochemical.
Sequence of His6-TEV-PDGFRβ (557-1016) (P09619 whole entry, looked up): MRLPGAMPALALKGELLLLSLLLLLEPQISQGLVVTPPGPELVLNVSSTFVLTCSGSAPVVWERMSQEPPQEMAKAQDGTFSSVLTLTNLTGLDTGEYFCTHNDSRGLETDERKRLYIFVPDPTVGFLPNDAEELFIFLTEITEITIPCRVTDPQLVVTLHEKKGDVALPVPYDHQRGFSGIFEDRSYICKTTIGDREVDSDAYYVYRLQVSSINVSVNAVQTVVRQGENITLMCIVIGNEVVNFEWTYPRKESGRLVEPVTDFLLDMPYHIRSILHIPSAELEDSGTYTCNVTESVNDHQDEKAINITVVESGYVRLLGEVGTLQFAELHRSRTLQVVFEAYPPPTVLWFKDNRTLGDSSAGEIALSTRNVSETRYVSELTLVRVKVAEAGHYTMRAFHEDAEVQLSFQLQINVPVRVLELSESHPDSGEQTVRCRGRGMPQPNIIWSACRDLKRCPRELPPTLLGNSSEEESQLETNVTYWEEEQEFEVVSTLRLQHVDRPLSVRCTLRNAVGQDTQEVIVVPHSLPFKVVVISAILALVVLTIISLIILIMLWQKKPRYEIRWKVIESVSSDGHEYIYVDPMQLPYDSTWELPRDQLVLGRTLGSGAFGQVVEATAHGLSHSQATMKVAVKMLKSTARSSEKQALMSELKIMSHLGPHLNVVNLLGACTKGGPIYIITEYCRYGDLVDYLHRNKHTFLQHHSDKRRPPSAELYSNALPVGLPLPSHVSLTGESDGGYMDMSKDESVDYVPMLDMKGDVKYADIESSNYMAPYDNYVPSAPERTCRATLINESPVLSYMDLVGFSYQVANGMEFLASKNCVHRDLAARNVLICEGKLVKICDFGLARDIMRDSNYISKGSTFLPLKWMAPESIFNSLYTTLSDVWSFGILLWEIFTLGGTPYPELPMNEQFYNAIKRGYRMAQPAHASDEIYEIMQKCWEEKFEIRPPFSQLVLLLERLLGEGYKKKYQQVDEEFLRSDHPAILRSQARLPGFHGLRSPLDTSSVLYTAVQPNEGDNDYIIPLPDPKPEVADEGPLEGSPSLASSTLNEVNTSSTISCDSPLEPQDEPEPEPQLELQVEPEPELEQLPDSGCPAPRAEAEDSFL

Where only a bound is given, the exact number is not on record here.

Sequence of PDGFRβ (Q05030 whole entry, looked up): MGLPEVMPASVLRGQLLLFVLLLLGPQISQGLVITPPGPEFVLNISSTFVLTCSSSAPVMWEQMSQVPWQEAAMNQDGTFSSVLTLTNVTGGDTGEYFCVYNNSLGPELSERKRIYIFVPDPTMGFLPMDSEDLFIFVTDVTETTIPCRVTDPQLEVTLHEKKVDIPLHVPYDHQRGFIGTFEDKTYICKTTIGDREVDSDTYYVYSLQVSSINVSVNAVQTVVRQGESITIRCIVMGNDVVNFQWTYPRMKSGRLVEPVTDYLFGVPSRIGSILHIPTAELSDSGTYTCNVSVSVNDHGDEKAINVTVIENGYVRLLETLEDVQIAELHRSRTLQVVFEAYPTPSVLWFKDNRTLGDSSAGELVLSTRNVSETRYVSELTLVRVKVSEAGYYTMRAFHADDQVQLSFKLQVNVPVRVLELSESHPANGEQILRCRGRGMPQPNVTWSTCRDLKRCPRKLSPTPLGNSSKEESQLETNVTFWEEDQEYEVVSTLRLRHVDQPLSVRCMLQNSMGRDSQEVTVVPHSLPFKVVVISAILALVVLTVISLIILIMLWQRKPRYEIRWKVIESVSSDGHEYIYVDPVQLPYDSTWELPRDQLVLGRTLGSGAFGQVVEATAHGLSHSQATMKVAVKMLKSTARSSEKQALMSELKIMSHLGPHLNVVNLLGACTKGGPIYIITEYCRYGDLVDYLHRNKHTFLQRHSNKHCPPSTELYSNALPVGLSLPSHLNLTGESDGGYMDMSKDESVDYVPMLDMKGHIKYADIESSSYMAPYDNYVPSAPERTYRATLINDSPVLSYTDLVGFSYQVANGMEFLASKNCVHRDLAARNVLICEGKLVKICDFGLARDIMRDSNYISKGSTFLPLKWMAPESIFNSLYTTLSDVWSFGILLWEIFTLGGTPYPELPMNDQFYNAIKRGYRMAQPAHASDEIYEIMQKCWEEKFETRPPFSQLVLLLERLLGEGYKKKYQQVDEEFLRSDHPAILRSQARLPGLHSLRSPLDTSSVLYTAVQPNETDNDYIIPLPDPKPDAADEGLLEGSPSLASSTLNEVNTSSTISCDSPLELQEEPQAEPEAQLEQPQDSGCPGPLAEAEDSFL
Sequence of VEGFR2, unphosphorylated (P35968 whole entry, looked up): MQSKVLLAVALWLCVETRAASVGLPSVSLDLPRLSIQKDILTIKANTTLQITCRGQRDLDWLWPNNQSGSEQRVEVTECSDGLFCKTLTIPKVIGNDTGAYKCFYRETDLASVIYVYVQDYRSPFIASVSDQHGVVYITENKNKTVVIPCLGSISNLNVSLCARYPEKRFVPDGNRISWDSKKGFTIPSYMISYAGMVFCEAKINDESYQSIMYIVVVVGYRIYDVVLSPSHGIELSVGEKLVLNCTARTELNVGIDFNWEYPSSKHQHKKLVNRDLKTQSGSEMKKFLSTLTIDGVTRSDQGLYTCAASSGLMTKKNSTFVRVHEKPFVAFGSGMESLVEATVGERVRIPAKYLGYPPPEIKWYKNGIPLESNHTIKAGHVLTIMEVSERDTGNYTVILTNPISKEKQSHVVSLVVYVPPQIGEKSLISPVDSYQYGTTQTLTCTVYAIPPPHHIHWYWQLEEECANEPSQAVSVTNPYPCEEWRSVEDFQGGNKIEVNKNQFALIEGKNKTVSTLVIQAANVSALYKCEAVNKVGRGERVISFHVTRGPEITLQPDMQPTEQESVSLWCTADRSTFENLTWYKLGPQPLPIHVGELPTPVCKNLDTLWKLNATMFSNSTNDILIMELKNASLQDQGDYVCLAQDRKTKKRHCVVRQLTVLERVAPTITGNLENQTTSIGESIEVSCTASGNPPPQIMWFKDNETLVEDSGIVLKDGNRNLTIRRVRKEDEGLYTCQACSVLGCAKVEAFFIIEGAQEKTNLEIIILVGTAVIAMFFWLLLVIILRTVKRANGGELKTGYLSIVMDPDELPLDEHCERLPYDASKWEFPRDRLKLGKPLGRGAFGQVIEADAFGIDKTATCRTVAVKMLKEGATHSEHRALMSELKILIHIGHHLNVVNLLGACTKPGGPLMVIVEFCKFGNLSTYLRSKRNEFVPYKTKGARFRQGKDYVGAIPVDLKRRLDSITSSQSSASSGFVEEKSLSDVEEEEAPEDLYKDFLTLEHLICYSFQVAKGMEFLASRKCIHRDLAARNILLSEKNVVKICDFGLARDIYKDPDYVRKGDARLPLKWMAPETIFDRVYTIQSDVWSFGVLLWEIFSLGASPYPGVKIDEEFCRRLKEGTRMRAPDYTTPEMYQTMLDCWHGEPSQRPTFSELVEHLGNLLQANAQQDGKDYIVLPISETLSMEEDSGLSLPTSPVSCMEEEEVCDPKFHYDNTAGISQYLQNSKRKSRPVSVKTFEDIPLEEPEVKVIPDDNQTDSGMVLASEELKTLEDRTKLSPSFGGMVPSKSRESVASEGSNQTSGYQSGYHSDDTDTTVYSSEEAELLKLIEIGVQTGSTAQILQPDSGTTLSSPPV
Sequence of Tb-labeled inactive PDGFRβ (P09619 whole entry, looked up): as the sequence (P09619 whole entry, looked up) above

`Cc1nc(Nc2ncc(C(=O)Nc3c(C)cccc3Cl)s2)cc(N2CCN(CCO)CC2)n1` [dasatinib]: the “cardiotoxicity and development of pulmonary hypertension” value in data set [1] was “linked to cardiotoxicity and the development of pulmonary hypertension”.

Usually IC50 stands for the concentration at which inhibition is half-maximal. `Cc1ncc(C(=O)NCCN(CCF)C2CCCC2)cc1Nc1nn(C)c2nc(Nc3cnn(C)c3)ncc12` [Example 152, N-(2-(cyclopentyl(2-fluoroethyl)amino)ethyl)-6-methyl-5-((1-methyl-6-((1-methyl-1H-pyrazol-4-yl)amino)-1H-pyrazolo[3,4-d]pyrimidin-3-yl)amino)nicotinamide]: the IC50 came to 2530 nM in data set [2], 7.4 nM in data set [3], 3.4 nM in data set [4] and 0.45 nM in data set [5].

For `Cn1cc(Nc2ncc3c(Nc4cc(C(=O)NCCN5CC(C)(C)C5)ccc4F)nn(C)c3n2)cn1` [Example 120, N-(2-(3,3-dimethylazetidin-1-yl)ethyl)-4-fluoro-3-((1-methyl-6-((1-methyl-1H-pyrazol-4-yl)amino)-1H-pyrazolo[3,4-d]pyrimidin-3-yl)amino)benzamide], the 50% inhibitory concentration (IC50) in data set [2] was above 7500 nM; in data set [3], 9.9 nM; in data set [4], 3.3 nM; in data set [5] it was 0.32 nM.

As for `Cc1cc(C(=O)NCCN2CCCOCC2)sc1Nc1nn(C)c2nc(Nc3cnn(C)c3)ncc12` [Example 62, N-(2-(1,4-oxazepan-4-yl)ethyl)-4-methyl-5-((1-methyl-6-((1-methyl-1H-pyrazol-4-yl)amino)-1H-pyrazolo[3,4-d]pyrimidin-3-yl)amino)thiophene-2-carboxamide], the IC50 in data set [2] was above 7500 nM; in data set [3], 64.7 nM; in data set [4], 12.1 nM; in data set [5], 0.83 nM.

Turning to `Cc1ncc(C(=O)NCCN2CCC3(CC3)C2)cc1Nc1nn(C)c2nc(Nc3cncnc3)ncc12` [Example 58, N-(2-(5-azaspiro[2.4]heptan-5-yl)ethyl)-6-methyl-5-((1-methyl-6-(pyrimidin-5-ylamino)-1H-pyrazolo[3,4-d]pyrimidin-3-yl)amino)nicotinamide], the IC50 in data set [2] was above 7500 nM; in data set [3], 101 nM; in data set [4], 4.8 nM; in data set [5], 0.36 nM.

Take `Cc1ncc(C(=O)NCCN2C3CCC2CC3)cc1Nc1nn(C)c2nc(Nc3cnn(C)c3)ncc12` [Example 153, N-(2-(7-azabicyclo[2.2.1]heptan-7-yl)ethyl)-6-methyl-5-((1-methyl-6-((1-methyl-1H-pyrazol-4-yl)amino)-1H-pyrazolo[3,4-d]pyrimidin-3-yl)amino)nicotinamide]: the IC50 in data set [2] is above 7500 nM; in data set [3], 113 nM; in data set [4], 1.3 nM; in data set [5], 0.26 nM.

Take `COc1ncccc1Nc1ncc2c(Nc3cc(NC(=O)CN4CCC[C@@H]4C)cnc3C)nn(C)c2n1` [Example 146, (S)—N-(5-((6-((2-methoxypyridin-3-yl)amino)-1-methyl-1H-pyrazolo[3,4-d]pyrimidin-3-yl)amino)-6-methylpyridin-3-yl)-2-(2-methylpyrrolidin-1-yl)acetamide]: the IC50 in data set [2] was above 7500 nM; in data set [3] it was 14.1 nM; in data set [4], 19.7 nM; in data set [5] it was 2.33 nM.

For `Cc1ncc(NC(=O)C2(C(=O)N3CCNCC3)CC2)cc1Nc1nn(C)c2nc(Nc3cnn(C)c3)ncc12` [Example 117, N-(6-methyl-5-((1-methyl-6-((1-methyl-1H-pyrazol-4-yl)amino)-1H-pyrazolo[3,4-d]pyrimidin-3-yl)amino)pyridin-3-yl)-1-(piperazine-1-carbonyl) cyclopropanecarboxamide], the IC50 in data set [2] was above 7500 nM; in data set [3], above 2000 nM; in data set [4], 147 nM; in data set [5], 4.28 nM.

Take `Cc1ncccc1Nc1ncc2c(Nc3cc(NC(=O)CN4CCC[C@@H]4C)cnc3C)nn(C)c2n1` [Example 145, (S)—N-(6-methyl-5-((1-methyl-6-((2-methylpyridin-3-yl)amino)-1H-pyrazolo[3,4-d]pyrimidin-3-yl)amino)pyridin-3-yl)-2-(2-methylpyrrolidin-1-yl)acetamide]: the IC50 in data set [2] was above 7500 nM; in data set [3] it was 8.7 nM; in data set [4] it was 15.3 nM; in data set [5] it was 1.59 nM.

As for `Cc1ncc(C(=O)NCCN(C(C)C)C(C)C)cc1Nc1nn(C)c2nc(Nc3cncnc3)ncc12` [Example 15, N-(2-(diisopropylamino)ethyl)-6-methyl-5-((1-methyl-6-(pyrimidin-5-ylamino)-1H-pyrazolo[3,4-d]pyrimidin-3-yl)amino)nicotinamide], the IC50 in data set [2] was above 7500 nM; in data set [3] it was 33.2 nM; in data set [4], 9.9 nM; in data set [5], 1.01 nM.

Turning to `Cc1ncc(C(=O)NCCN2CC(C)CC(C)C2)cc1Nc1nn(C)c2nc(Nc3cnn(C)c3)ncc12` (centres unmarked) [Example 87, N-(2-(3,5-dimethylpiperidin-1-yl)ethyl)-6-methyl-5-((1-methyl-6-((1-methyl-1H-pyrazol-4-yl)amino)-1H-pyrazolo[3,4-d]pyrimidin-3-yl)amino)nicotinamide], the IC50 in data set [2] is above 7500 nM; in data set [3] it was 11.5 nM; in data set [4], 2.3 nM; in data set [5], 0.29 nM.

`Cc1ncc(C(=O)NCCN2CCOCC23CC3)cc1Nc1nn(C)c2nc(Nc3cncnc3)ncc12` [Example 13, N-(2-(7-oxa-4-azaspiro[2.5]octan-4-yl)ethyl)-6-methyl-5-((1-methyl-6-(pyrimidin-5-ylamino)-1H-pyrazolo[3,4-d]pyrimidin-3-yl)amino)nicotinamide]: the IC50 in data set [2] was above 7500 nM; in data set [3], 152 nM; in data set [4], 12.8 nM; in data set [5] it was 1.55 nM.

On to `COCCn1cc(Nc2ncc3c(Nc4cc(NC(=O)CN5CC6CCC5CC6)cnc4C)nn(C)c3n2)cn1` [Example 127, 2-(2-azabicyclo[2.2.2]octan-2-yl)-N-(5-((6-((1-(2-methoxyethyl)-1H-pyrazol-4-yl)amino)-1-methyl-1H-pyrazolo[3,4-d]pyrimidin-3-yl)amino)-6-methylpyridin-3-yl)acetamide], for which the IC50 in data set [2] was found to be 6490 nM; in data set [3], 2.6 nM; in data set [4], 1.4 nM; in data set [5], 0.27 nM.

As for `CC(=O)Nc1cc(Nc2ncc3c(Nc4cc(C(=O)NCCN5CCCC5(C)C)cnc4C)nn(C)c3n2)ccn1` [Example 100, 5-((6-((2-acetamidopyridin-4-yl)amino)-1-methyl-1H-pyrazolo[3,4-d]pyrimidin-3-yl)amino)-N-(2-(2,2-dimethylpyrrolidin-1-yl)ethyl)-6-methylnicotinamide], the IC50 in data set [2] worked out at 5420 nM; in data set [3], 93.1 nM; in data set [4], 2.8 nM; in data set [5], 0.39 nM.

Regarding `Cc1ncc(C(=O)NCCN2CCCC2(C)C)cc1Nc1nn(C)c2nc(Nc3cccc(CC(=O)O)c3)ncc12` [Example 44, 2-(3-((3-((5-((2-(2,2-dimethylpyrrolidin-1-yl)ethyl)carbamoyl)-2-methylpyridin-3-yl)amino)-1-methyl-1H-pyrazolo[3,4-d]pyrimidin-6-yl)amino)phenyl)-acetic acid], the IC50 in data set [2] was determined as 2190 nM; in data set [3], 2660 nM; in data set [4], 9.7 nM; in data set [5] it was 1.54 nM.

On to `Cc1ncc(NC(=O)NCCN2CCCC2(C)C)cc1Nc1nn(C)c2nc(Nc3cncnc3)ncc12` [Example 16, 1-(2-(2,2-dimethylpyrrolidin-1-yl)ethyl)-3-(6-methyl-5-((1-methyl-6-(pyrimidin-5-ylamino)-1H-pyrazolo[3,4-d]pyrimidin-3-yl)amino)pyridin-3-yl)urea], for which the IC50 was above 7500 nM in data set [2], 1480 nM in data set [3], 18.5 nM in data set [4] and 1.36 nM in data set [5].

Take `Cc1ncc(C(=O)NCCN2CCCC2(C)C)cc1Nc1nn(C)c2nc(Nc3cncc(C(=O)O)c3)ncc12` [Example 30, 5-((3-((5-((2-(2,2-dimethylpyrrolidin-1-yl)ethyl)carbamoyl)-2-methylpyridin-3-yl)amino)-1-methyl-1H-pyrazolo[3,4-d]pyrimidin-6-yl)amino)nicotinic acid]: the IC50 in data set [2] was above 10000 nM; in data set [3], above 10000 nM; in data set [4], 36.8 nM; in data set [5], 3.8 nM.
